One test concerns the target T1, Orexin receptor type 2 (Homo sapiens, UniProt O43614).
T1 sequence (O43614 whole entry): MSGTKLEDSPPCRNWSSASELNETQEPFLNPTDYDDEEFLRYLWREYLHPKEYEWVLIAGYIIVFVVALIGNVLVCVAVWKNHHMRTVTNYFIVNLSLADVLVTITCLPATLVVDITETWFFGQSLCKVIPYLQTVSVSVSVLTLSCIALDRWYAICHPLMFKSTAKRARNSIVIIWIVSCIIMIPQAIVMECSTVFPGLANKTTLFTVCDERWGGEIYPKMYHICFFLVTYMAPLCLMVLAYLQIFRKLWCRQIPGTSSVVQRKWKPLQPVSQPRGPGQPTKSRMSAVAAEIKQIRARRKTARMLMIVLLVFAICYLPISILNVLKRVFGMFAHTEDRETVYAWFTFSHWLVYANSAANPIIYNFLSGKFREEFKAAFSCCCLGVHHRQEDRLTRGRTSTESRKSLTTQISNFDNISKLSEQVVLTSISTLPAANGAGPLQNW
Briefly: (§1) FLIPR Ca2+ Flux Assay: All reagents were from GIBCO-Invitrogen Corp. The seeded plates are incubated overnight at 37° C. and 5% CO2. Ala-6,12 human orexin-A as the agonist is prepared as a 1 mM stock solution in 1% bovine serum albumin (BSA) and diluted in assay buffer (HBSS containing 20 mM HEPES, 0.1% BSA and 2.5 mM probenecid, pH7.4) for use in the assay at a final concentration of 70pM. Test compounds are prepared as 10 mM stock solution in DMSO, then diluted in 384-well plates, first in DMSO, then assay buffer. On the day of the assay, cells are washed 3 times with 100 μl assay buffer and then incubated for 60 min (37° C., 5% CO2) in 60 μl assay buffer containing 1 μM Fluo-4AM ester, 0.02% pluronic acid, and 1% BSA. The dye loading solution is then aspirated and cells are washed 3 times with 100 μl assay buffer. 30 μl of that same buffer is left in each well. Within the Fluorescent Imaging Plate Reader (FLIPR, Molecular Devices), test compounds are added to the plate in a volume of 25 μl, incubated for 5 min and finally 25 μl of agonist is added. Fluorescence is measured for each well at 1 second intervals for 5 minutes and the height of each fluorescence peak is compared to the height of the fluorescence peak induced by 70 pM Ala-6,12 orexin-A with buffer in place of antagonist. For each antagonist, IC50 value (the concentration of compound needed to inhibit 50% of the agonist response) is determined. Alternatively, compound potency can be assessed by a radioligand binding assay (described in Bergman et. al. Bioorg. Med. Chem. Lett. 2008, 18, 1425-1430) in which the inhibition constant (Ki) is determined in membranes prepared from CHO cells expressing either the OX1 or OX2 receptor. The intrinsic orexin receptor antagonist activity of a compound which may be used in the present invention may be determined by these assays.

The target in test [1] is T2, Orexin/Hypocretin receptor type 1 (Homo sapiens, UniProt O43613).
T2 sequence (O43613 whole entry): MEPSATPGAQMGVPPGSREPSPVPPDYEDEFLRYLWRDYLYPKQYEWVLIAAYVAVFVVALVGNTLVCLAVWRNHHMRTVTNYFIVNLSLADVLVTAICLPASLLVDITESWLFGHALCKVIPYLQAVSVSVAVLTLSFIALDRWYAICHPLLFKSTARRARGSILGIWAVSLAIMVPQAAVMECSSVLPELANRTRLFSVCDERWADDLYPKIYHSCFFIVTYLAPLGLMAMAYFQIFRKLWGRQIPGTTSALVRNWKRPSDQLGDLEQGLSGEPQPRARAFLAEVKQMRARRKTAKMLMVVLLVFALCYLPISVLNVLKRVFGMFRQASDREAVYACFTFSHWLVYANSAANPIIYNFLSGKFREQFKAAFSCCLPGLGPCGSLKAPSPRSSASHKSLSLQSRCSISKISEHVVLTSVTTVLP
The test is described as §1.

Consider `C[C@@H]1C[C@@H](Nc2cc(OCC(F)F)ccn2)CN1C(=O)c1ccccc1C1(C#N)CCC1`, for which the values for the IC50 (on Orexin receptor type 2; in test [1]) were 58.3 nM and 4040 nM, respectively.
The corresponding values for `C[C@@H]1C[C@@H](Nc2cc(Br)ccn2)CN1C(=O)c1ccccc1-n1nccn1` are 11.2 nM and 1150 nM.
